# Values quoted from earlier work, collected in patent US8716354B2 (priority 2003, dated 2014).
# Conditions: intravenous injection of a therapeutic dose
smiles,measurement,value
"CC(C)c1cccc(C(C)C)c1O [propofol, 2,6-diisopropylphenol]",Time to hypnosis from the start of injection,≤ 40 s
